# Measured values: ChEMBL document CHEMBL1201861, “Genomics of Drug Sensitity in Cancer screening data, Wellcome Trust Sanger Institute”
# Tests used:
# Assay in all cases: cells
# Settings in all cases: Homo sapiens
# EW-16 = format: functional, cell-based;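 note: growth inhibition of human EW-16 cells, read out as cell viability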
# Description: SANGER: Inhibition of human EW-16 cell growth in a cell viability assay.
# LC-2-ad = format: functional, cell-based;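 note: growth inhibition of human LC-2-ad cells, read out with a cell viability assay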
# Description: SANGER: Inhibition of human LC-2-ad cell growth in a cell viability assay.
# EW-3 = format: functional, cell-based;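 note: cell viability assay read-out, IC50 reflects inhibition of growth of the EW-3 cells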
# Description: SANGER: Inhibition of human EW-3 cell growth in a cell viability assay.
# LB771-HNC = format: functional, cell-based;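 note: growth inhibition of LB771-HNC human cells, read out with a cell viability assay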
# Description: SANGER: Inhibition of human LB771-HNC cell growth in a cell viability assay.
# ML-2 = format: functional, cell-based;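 note: growth inhibition of ML-2 cells, measured with a cell viability readout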
# Description: SANGER: Inhibition of human ML-2 cell growth in a cell viability assay.
# CAS-1 = format: functional, cell-based;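 note: growth inhibition of CAS-1 cells, measured with a cell viability assay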
# Description: SANGER: Inhibition of human CAS-1 cell growth in a cell viability assay.
# ALL-PO = format: functional, cell-based;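 note: growth inhibition of ALL-PO cells, read out by a cell viability assay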
# Description: SANGER: Inhibition of human ALL-PO cell growth in a cell viability assay.
# SW684 = format: functional, cell-based;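 note: growth inhibition of human SW684 cells, measured by a cell viability assay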
# Description: SANGER: Inhibition of human SW684 cell growth in a cell viability assay.
# SNU-5 = format: functional, cell-based;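 note: cell viability readout used to measure growth inhibition in human NCI-SNU-5 cells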
# Description: SANGER: Inhibition of human NCI-SNU-5 cell growth in a cell viability assay.
# CTB-1 = format: functional, cell-based
# Description: SANGER: Inhibition of human CTB-1 cell growth in a cell viability assay.
# SJSA-1 = format: functional, cell-based;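 note: growth inhibition of human SJSA-1 cells, read out through a cell viability measurement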
# Description: SANGER: Inhibition of human SJSA-1 cell growth in a cell viability assay.
# OS-RC-2 = format: functional, cell-based;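 note: growth inhibition of human OS-RC-2 cells, measured by a cell viability assay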
# Description: SANGER: Inhibition of human OS-RC-2 cell growth in a cell viability assay.
# NCI-H2126 = format: functional, cell-based;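 note: growth inhibition of the cancer cell line, determined with a cell viability readout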
# Description: SANGER: Inhibition of human NCI-H2126 cell growth in a cell viability assay.
# NB69 = format: functional, cell-based;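 note: growth inhibition of NB69 cells, determined by a cell viability assay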
# Description: SANGER: Inhibition of human NB69 cell growth in a cell viability assay.
# KM12 = format: functional, cell-based;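 note: KM12 cell growth inhibition, read out with a cell viability assay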
# Description: SANGER: Inhibition of human KM12 cell growth in a cell viability assay.
# NCI-H1581 = format: functional, cell-based;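 note: cell growth inhibition read out by a viability assay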
# Description: SANGER: Inhibition of human NCI-H1581 cell growth in a cell viability assay.
# CW-2 = format: functional, cell-based;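 note: growth inhibition of CW-2 cells, read out by a cell viability assay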
# Description: SANGER: Inhibition of human CW-2 cell growth in a cell viability assay.
# A498 = format: functional, cell-based;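 note: growth inhibition of human A498 cells, read out with a cell viability assay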
# Description: SANGER: Inhibition of human A498 cell growth in a cell viability assay.
# EM-2 = format: functional, cell-based;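 note: growth inhibition of EM-2 cells, read out with a cell viability assay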
# Description: SANGER: Inhibition of human EM-2 cell growth in a cell viability assay.
# NCI-H209 = format: functional, cell-based;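 note: growth inhibition of human NCI-H209 cells, measured by a cell viability assay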
# Description: SANGER: Inhibition of human NCI-H209 cell growth in a cell viability assay.
# A3-KAW = format: functional, cell-based;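 note: growth inhibition of human A3-KAW cells, read out with a cell viability assay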
# Description: SANGER: Inhibition of human A3-KAW cell growth in a cell viability assay.
# P30-OHK = format: functional, cell-based;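 note: growth inhibition of the P30-OHK cell line, read out with a cell viability assay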
# Description: SANGER: Inhibition of human P30-OHK cell growth in a cell viability assay.
# A4-Fuk = format: functional, cell-based;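 note: growth inhibition of A4-Fuk cells, read out by a cell viability assay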
# Description: SANGER: Inhibition of human A4-Fuk cell growth in a cell viability assay.
# IA-LM = format: functional, cell-based;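 note: cell viability assay measuring growth inhibition of human IA-LM cells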
# Description: SANGER: Inhibition of human IA-LM cell growth in a cell viability assay.
# ACN = format: functional, cell-based;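 note: growth inhibition of the human ACN cell line, read out via cell viability testing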
# Description: SANGER: Inhibition of human ACN cell growth in a cell viability assay.
# NMC-G1 = format: functional, cell-based;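 note: growth inhibition of the NMC-G1 cell line, measured with a cell viability read-out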
# Description: SANGER: Inhibition of human NMC-G1 cell growth in a cell viability assay.
# TE-1 = format: functional, cell-based
# Description: SANGER: Inhibition of human TE-1 cell growth in a cell viability assay.
# NH-12 = format: functional, cell-based;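 note: growth inhibition of NH-12 cells, read out with a cell viability assay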
# Description: SANGER: Inhibition of human NH-12 cell growth in a cell viability assay.
# HCE-T = format: functional, cell-based;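 note: cell viability assay read-out, reporting inhibition of HCE-T cell growth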
# Description: SANGER: Inhibition of human HCE-T cell growth in a cell viability assay.
# COLO-829 = format: functional, cell-based
# Description: SANGER: Inhibition of human COLO-829 cell growth in a cell viability assay.
# BB30-HNC = format: functional, cell-based;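 note: growth inhibition of the cultured cell line, read out by a cell viability assay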
# Description: SANGER: Inhibition of human BB30-HNC cell growth in a cell viability assay.
# SW872 = format: functional, cell-based;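 note: growth inhibition of SW872 cells, read out by a viability assay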
# Description: SANGER: Inhibition of human SW872 cell growth in a cell viability assay.
# QIMR-WIL = format: functional, cell-based;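 note: growth inhibition of QIMR-WIL cells, read out with a cell viability assay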
# Description: SANGER: Inhibition of human QIMR-WIL cell growth in a cell viability assay.
# SF-539 = format: functional, cell-based;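 note: Read-out is a cell viability assay, with IC50 reflecting inhibition of cell growth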
# Description: SANGER: Inhibition of human SF539 cell growth in a cell viability assay.
# MPP-89 = format: functional, cell-based;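 note: growth inhibition of human MPP-89 cells, read out with a cell viability assay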
# Description: SANGER: Inhibition of human MPP-89 cell growth in a cell viability assay.
# PSN1 = format: functional, cell-based;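 note: suppression of growth of human PSN1 cells, read out by a cell viability assay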
# Description: SANGER: Inhibition of human PSN1 cell growth in a cell viability assay.
# LS-1034 = format: functional, cell-based
# Description: SANGER: Inhibition of human LS-1034 cell growth in a cell viability assay.
# BV-173 = format: functional, cell-based
# Description: SANGER: Inhibition of human BV-173 cell growth in a cell viability assay.
# DOHH-2 = format: functional, cell-based;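 note: growth inhibition of human DOHH-2 cells, read out with a cell viability assay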
# Description: SANGER: Inhibition of human DOHH-2 cell growth in a cell viability assay.
# TE-11 = format: functional, cell-based;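 note: growth inhibition of human TE-11 cells, read out by a cell viability assay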
# Description: SANGER: Inhibition of human TE-11 cell growth in a cell viability assay.
# LU-139 = format: functional, cell-based
# Description: SANGER: Inhibition of human LU-139 cell growth in a cell viability assay.
# COLO-668 = format: functional, cell-based
# Description: SANGER: Inhibition of human COLO-668 cell growth in a cell viability assay.
# MHH-NB-11 = format: functional, cell-based;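 note: growth inhibition of human MHH-NB-11 cells, read out by a cell viability assay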
# Description: SANGER: Inhibition of human MHH-NB-11 cell growth in a cell viability assay.
# MFH-ino = format: functional, cell-based;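 note: growth inhibition of human MFH-ino cells, read out by a cell viability assay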
# Description: SANGER: Inhibition of human MFH-ino cell growth in a cell viability assay.
# SK-LMS-1 = format: functional, cell-based;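 note: growth inhibition of human SK-LMS-1 cells, read out with a cell viability assay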
# Description: SANGER: Inhibition of human SK-LMS-1 cell growth in a cell viability assay.
# K5 = format: functional, cell-based
# Description: SANGER: Inhibition of human K5 cell growth in a cell viability assay.
# COR-L88 = format: functional, cell-based;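 note: growth inhibition of COR-L88 cells, read out with a cell viability assay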
# Description: SANGER: Inhibition of human COR-L88 cell growth in a cell viability assay.
# EW-18 = format: functional, cell-based;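 note: growth inhibition of EW-18 cells, read out by a cell viability assay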
# Description: SANGER: Inhibition of human EW-18 cell growth in a cell viability assay.
# 8-MG-BA = format: functional, cell-based;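 note: growth inhibition of 8-MG-BA cells, read out with a cell viability assay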
# Description: SANGER: Inhibition of human 8-MG-BA cell growth in a cell viability assay.
# TE-8 = format: functional, cell-based;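 note: growth inhibition of TE-8 cells, measured with a cell viability readout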
# Description: SANGER: Inhibition of human TE-8 cell growth in a cell viability assay.
# EW-1 = format: functional, cell-based
# Description: SANGER: Inhibition of human EW-1 cell growth in a cell viability assay.
# HOP-62 = format: functional, cell-based;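 note: cell growth inhibition determined with a viability assay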
# Description: SANGER: Inhibition of human HOP-62 cell growth in a cell viability assay.
# D283 Med = format: functional, cell-based
# Description: SANGER: Inhibition of human D-283MED cell growth in a cell viability assay.
# BB65-RCC = format: functional, cell-based;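 note: growth inhibition of the cell line, measured with a cell viability assay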
# Description: SANGER: Inhibition of human BB65-RCC cell growth in a cell viability assay.
# NCI-H226 = format: functional, cell-based;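 note: cell viability read-out used to gauge growth inhibition of the cells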
# Description: SANGER: Inhibition of human NCI-H226 cell growth in a cell viability assay.
# HT-144 = format: functional, cell-based
# Description: SANGER: Inhibition of human HT-144 cell growth in a cell viability assay.
# LB2241-RCC = format: functional, cell-based;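 note: cell viability assay measuring how strongly the cultured human renal carcinoma line is prevented from growing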
# Description: SANGER: Inhibition of human LB2241-RCC cell growth in a cell viability assay.
# U-87 MG = format: functional, cell-based, U-87MG ATCC;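 note: growth inhibition of the cells measured with a viability assay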
# Description: SANGER: Inhibition of human U-87-MG cell growth in a cell viability assay.
# LS-123 = format: functional, cell-based
# Description: SANGER: Inhibition of human LS-123 cell growth in a cell viability assay.
# NB13 = format: functional, cell-based;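 note: cell viability readout measuring growth inhibition of human NB13 cells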
# Description: SANGER: Inhibition of human NB13 cell growth in a cell viability assay.
# HCE-4 = format: functional, cell-based;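 note: cell viability assay measuring inhibition of growth in the human HCE-4 cell line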
# Description: SANGER: Inhibition of human HCE-4 cell growth in a cell viability assay.
# D-502MG = format: functional, cell-based
# Description: SANGER: Inhibition of human D-502MG cell growth in a cell viability assay.
# KGN = format: functional, cell-based
# Description: SANGER: Inhibition of human KGN cell growth in a cell viability assay.
# LS-411N = format: functional, cell-based
# NCI-H23 = format: functional, cell-based
# Description: SANGER: Inhibition of human NCI-H23 cell growth in a cell viability assay.
# ES7 = format: functional, cell-based
# Description: SANGER: Inhibition of human ES7 cell growth in a cell viability assay.
compound,measurement,setting,value
C/C=C(/C)C(=O)O[C@H]1C(C)=C2[C@H]([C@@H]1OC(=O)CCCCCCC)[C@@](C)(OC(C)=O)C[C@H](OC(=O)CCC)[C@@]1(O)[C@H]2OC(=O)[C@@]1(C)O [THAPSIGARGIN],IC50,EW-16,0.598 nM
same,IC50,LC-2-ad,4.64 nM
same,IC50,EW-3,118 nM
same,IC50,LB771-HNC,64.1 nM
same,IC50,ML-2,53.9 nM
same,IC50,CAS-1,118 nM
same,IC50,ALL-PO,16.3 nM
same,IC50,SW684,> 512 nM
same,IC50,SNU-5,91.4 nM
same,IC50,CTB-1,17 nM
same,IC50,SJSA-1,3 nM
same,IC50,OS-RC-2,24.3 nM
same,IC50,NCI-H2126,79.3 nM
same,IC50,NB69,0.873 nM
same,IC50,KM12,13.4 nM
same,IC50,NCI-H1581,0.55 nM
same,IC50,CW-2,> 512 nM
same,IC50,A498,> 512 nM
same,IC50,EM-2,55.4 nM
same,IC50,NCI-H209,18.1 nM
same,IC50,A3-KAW,1.98 nM
same,IC50,P30-OHK,2.08 nM
same,IC50,A4-Fuk,< 2 nM
same,IC50,IA-LM,2.39 nM
same,IC50,ACN,4.69 nM
same,IC50,NMC-G1,21.5 nM
same,IC50,TE-1,22 nM
same,IC50,NH-12,24 nM
same,IC50,HCE-T,36.3 nM
same,IC50,COLO-829,29.8 nM
same,IC50,BB30-HNC,0.984 nM
same,IC50,SW872,5.78 nM
same,IC50,QIMR-WIL,> 512 nM
same,IC50,SF-539,1.94 nM
same,IC50,MPP-89,20 nM
same,IC50,PSN1,< 2 nM
same,IC50,LS-1034,29 nM
same,IC50,BV-173,2.81 nM
same,IC50,DOHH-2,22.3 nM
same,IC50,TE-11,9.14 nM
same,IC50,LU-139,33.6 nM
same,IC50,COLO-668,19.7 nM
same,IC50,MHH-NB-11,45.1 nM
same,IC50,MFH-ino,1.32 nM
same,IC50,SK-LMS-1,< 2 nM
same,IC50,K5,> 512 nM
same,IC50,COR-L88,266 nM
same,IC50,EW-18,2.11 nM
same,IC50,8-MG-BA,1.99 nM
same,IC50,TE-8,1.37 nM
same,IC50,EW-1,3.88 nM
same,IC50,HOP-62,0.601 nM
same,IC50,D283 Med,< 2 nM
same,IC50,BB65-RCC,5.08 nM
same,IC50,NCI-H226,2.41 nM
same,IC50,HT-144,0.518 nM
same,IC50,LB2241-RCC,66 nM
same,IC50,U-87 MG,132 nM
same,IC50,LS-123,6.23 nM
same,IC50,NB13,9.45 nM
same,IC50,HCE-4,4.25 nM
same,IC50,D-502MG,343 nM
same,IC50,KGN,< 2 nM
same,IC50,LS-411N,13.6 nM
same,IC50,NCI-H23,> 512 nM
same,IC50,ES7,21.1 nM
C[C@]1(c2nc3c(C(N)=O)cccc3[nH]2)CCCN1 [VELIPARIB],IC50,EW-16,> 5000 nM
same,IC50,LC-2-ad,> 5000 nM
same,IC50,EW-3,> 5000 nM
same,IC50,LB771-HNC,> 5000 nM
same,IC50,ML-2,> 5000 nM
same,IC50,CAS-1,> 5000 nM
same,IC50,ALL-PO,> 5000 nM
same,IC50,SW684,> 5000 nM
same,IC50,SNU-5,3130 nM
same,IC50,CTB-1,> 5000 nM
same,IC50,SJSA-1,> 5000 nM
same,IC50,OS-RC-2,> 5000 nM
same,IC50,NCI-H2126,> 5000 nM
same,IC50,NB69,> 5000 nM
same,IC50,KM12,> 5000 nM
same,IC50,NCI-H1581,> 5000 nM
same,IC50,CW-2,> 5000 nM
same,IC50,A498,> 5000 nM
same,IC50,EM-2,> 5000 nM
same,IC50,NCI-H209,> 5000 nM
same,IC50,A3-KAW,> 5000 nM
same,IC50,P30-OHK,> 5000 nM
same,IC50,A4-Fuk,> 5000 nM
same,IC50,IA-LM,> 5000 nM
same,IC50,ACN,> 5000 nM
same,IC50,NMC-G1,> 5000 nM
same,IC50,TE-1,> 5000 nM
same,IC50,NH-12,> 5000 nM
same,IC50,HCE-T,> 5000 nM
same,IC50,COLO-829,> 5000 nM
same,IC50,BB30-HNC,> 5000 nM
same,IC50,SW872,> 5000 nM
same,IC50,QIMR-WIL,> 5000 nM
same,IC50,SF-539,> 5000 nM
same,IC50,MPP-89,> 5000 nM
same,IC50,PSN1,> 5000 nM
same,IC50,LS-1034,> 5000 nM
same,IC50,BV-173,> 5000 nM
same,IC50,DOHH-2,> 5000 nM
same,IC50,TE-11,> 5000 nM
same,IC50,LU-139,> 5000 nM
same,IC50,COLO-668,> 5000 nM
same,IC50,MHH-NB-11,> 5000 nM
same,IC50,MFH-ino,> 5000 nM
same,IC50,SK-LMS-1,> 5000 nM
same,IC50,K5,> 5000 nM
same,IC50,COR-L88,> 5000 nM
same,IC50,EW-18,> 5000 nM
same,IC50,8-MG-BA,> 5000 nM
same,IC50,TE-8,> 5000 nM
same,IC50,EW-1,> 5000 nM
same,IC50,HOP-62,> 5000 nM
same,IC50,D283 Med,> 5000 nM
same,IC50,BB65-RCC,> 5000 nM
same,IC50,NCI-H226,> 5000 nM
same,IC50,HT-144,> 5000 nM
same,IC50,LB2241-RCC,> 5000 nM
same,IC50,U-87 MG,> 5000 nM
same,IC50,LS-123,> 5000 nM
same,IC50,NB13,> 5000 nM
same,IC50,HCE-4,> 5000 nM
same,IC50,D-502MG,> 5000 nM
same,IC50,KGN,> 5000 nM
same,IC50,LS-411N,> 5000 nM
same,IC50,NCI-H23,> 5000 nM
same,IC50,ES7,> 5000 nM
CC[C@]1(O)C[C@@H]2CN(CCc3c([nH]c4ccccc34)[C@@](C(=O)OC)(c3cc4c(cc3OC)N(C)[C@H]3[C@@](O)(C(=O)OC)[C@H](OC(C)=O)[C@]5(CC)C=CCN6CC[C@]43[C@@H]65)C2)C1 [VINBLASTINE],IC50,EW-16,7.83 nM
same,IC50,LC-2-ad,7.9 nM
same,IC50,EW-3,37.2 nM
same,IC50,LB771-HNC,8.57 nM
same,IC50,ML-2,8.65 nM
same,IC50,CAS-1,93.1 nM
same,IC50,ALL-PO,5.21 nM
same,IC50,SW684,> 100 nM
same,IC50,SNU-5,> 100 nM
same,IC50,CTB-1,1.64 nM
same,IC50,SJSA-1,12.1 nM
same,IC50,OS-RC-2,69.8 nM
same,IC50,NCI-H2126,25.9 nM
same,IC50,NB69,5.73 nM
same,IC50,KM12,14.4 nM
same,IC50,NCI-H1581,4.24 nM
same,IC50,CW-2,> 100 nM
same,IC50,A498,5.94 nM
same,IC50,EM-2,5.32 nM
same,IC50,NCI-H209,13.1 nM
same,IC50,A3-KAW,4.32 nM
same,IC50,P30-OHK,11.1 nM
same,IC50,A4-Fuk,1.87 nM
same,IC50,IA-LM,68.6 nM
same,IC50,ACN,40.3 nM
same,IC50,NMC-G1,8.48 nM
same,IC50,TE-1,10.9 nM
same,IC50,NH-12,26.3 nM
same,IC50,HCE-T,20 nM
same,IC50,COLO-829,19.2 nM
same,IC50,BB30-HNC,8.31 nM
same,IC50,SW872,> 100 nM
same,IC50,QIMR-WIL,8.95 nM
same,IC50,SF-539,1.21 nM
same,IC50,MPP-89,30.3 nM
same,IC50,PSN1,1.25 nM
same,IC50,LS-1034,> 100 nM
same,IC50,BV-173,42.3 nM
same,IC50,DOHH-2,1.81 nM
same,IC50,TE-11,5.13 nM
same,IC50,LU-139,14.1 nM
same,IC50,COLO-668,> 100 nM
same,IC50,MHH-NB-11,38.9 nM
same,IC50,MFH-ino,> 100 nM
same,IC50,SK-LMS-1,58.6 nM
same,IC50,K5,4.68 nM
same,IC50,COR-L88,24.3 nM
same,IC50,EW-18,> 100 nM
same,IC50,8-MG-BA,6.34 nM
same,IC50,TE-8,6.16 nM
same,IC50,EW-1,3.15 nM
same,IC50,HOP-62,> 100 nM
same,IC50,D283 Med,39.1 nM
same,IC50,BB65-RCC,20.7 nM
same,IC50,NCI-H226,13.8 nM
same,IC50,HT-144,3.32 nM
same,IC50,LB2241-RCC,10.1 nM
same,IC50,U-87 MG,30 nM
same,IC50,LS-123,53.3 nM
same,IC50,NB13,3.27 nM
same,IC50,HCE-4,18.1 nM
same,IC50,D-502MG,23.5 nM
same,IC50,KGN,33.3 nM
same,IC50,LS-411N,66.4 nM
same,IC50,NCI-H23,5.71 nM
same,IC50,ES7,5.75 nM
